Reference: US12257263B2, “Pharmaceutical compositions for demodex related blepharitis and eyelid crusting” (Tarsus Pharmaceuticals, Inc., priority 2014, dated 2025)
Read-outs that look alike come from different tables or passages of the source.

Tests used:
eyes of six rabbits = details: cited from earlier work
[1] = approximately 0.5% to 1% added to balanced salt solutions; cited from earlier work
[2] = tested on: Demodex folliculorum-associated Oculocutaneous Rosacea; details: oral, child, JAMA Dermatol 2014; cited from earlier work
demodex mites = experiment: Presence of demodex mites in eyelash follicles of treated patients; format: in vivo, demodex folliculorum
rabbit eyes = details: cited from earlier work
human subjects = details: formulation containing 7.6% of Ethylhexyl Stearate, cited from earlier work
skin = details: 6-day cumulative, cited from earlier work
rabbit's eyes = details: cited from earlier work
rabbit skin = details: undiluted test material; cited from earlier work
[3] = tested on: New Zealand white albino rabbits; details: undiluted, groups of 6 rabbits; cited from earlier work
eye = details: human, in vivo
Experimental: As this invention is to be used topically, good absorption is achieved by using Propylene Glycol as a solvent for the ivermectin. According to the Cosmetic Ingredients Report Panel Meeting on Jun. 28-29, 2010, the ocular irritation of Propylene Glycol was determined using groups of 6 males and female New Zealand white albino rabbits.

In the case of Cc1c(C)c2c(c(C)c1O)CCC(C)(CCCC(C)CCCC(C)CCCC(C)C)O2 (racemic) [dl-α-tocopherol], the “conjunctival irritation (redness)” value (eyes of six rabbits; rabbit, in vivo) is given as “Weak to moderate conjunctival irritation”, the “time by which conjunctival irritation subsided” value (eyes of six rabbits; rabbit, in vivo) is given as ≤ 7 days and the corneal changes (eyes of six rabbits; undiluted, six rabbits, eyes not rinsed) is given as “No corneal changes”.

In the case of O=C(O)CN(CCN(CC(=O)O)CC(=O)O)CC(=O)O [EDTA, Ethylenediaminetetraacetic acid], the toxicity [1] is given as “not toxic”.

For CC[C@H](C)[C@H]1O[C@]2(CC[C@@H]1C)C[C@@H]1C[C@@H](C/C=C(\C)[C@@H](O[C@H]3C[C@H](OC)[C@@H](O[C@H]4C[C@H](OC)[C@@H](O)[C@H](C)O4)[C@H](C)O3)[C@@H](C)/C=C/C=C3\CO[C@@H]4[C@H](O)C(C)=C[C@@H](C(=O)O1)[C@]34O)O2 [Ivermectin (Stromectol), ivermectin], the treatment outcome [2] is given as “successfully treated”, the demodex mites (demodex mites; Example 2 patient, oral 12 mg plus 4 subsequent doses, with Tea Tree Oil eyelid scrubs twice a day, over 2 months) is given as “reduced in numbers but were not completely eliminated” and the “elimination of demodex mites” value (demodex mites; oral, a single dose, applicant's experience) is given as “does not eliminate the demodex mites”.

In the case of O=C([O-])CN(CCN(CC(=O)[O-])CC(=O)O)CC(=O)O.[Na+].[Na+] [Disodium EDTA, disodium EDTA], the “mucous membrane irritation classification” value (rabbit eyes) is given as “non-irritant”.

In the case of CCCCCCCCCCCCCCCCCC(=O)OCC(CC)CCCC (centres unmarked) [Ethylhexyl Stearate], the phototoxicity (human subjects; 10 subjects) is given as “not phototoxic”, the photosensitisation (human subjects; 27 subjects, some slight reactions reported) is given as “not a photosensitizer” and the irritation and sensitization (human subjects; 56 subjects) is given as “not an irritant or sensitizer”. For the same molecule, the “mean maximum irritation index (MMII)” value (skin; 10% aqueous solution) was 0.33, the skin tolerance (skin; 10% aqueous solution) was “relatively well tolerated” and the “mean maximum irritation index (MMII)” value (skin; undiluted test material) was 0.67. The skin tolerance (skin; undiluted test material) was “poorly tolerated”, the eye injury (rabbit's eyes; undiluted test material) was “did not provoke any significant injury” and the “max Primary irritation Index (PII)” value (rabbit's eyes; undiluted, out of 100, at 1 h) was 4.67. The skin irritation (rabbit skin) was “at most mildly irritating”.

In the case of CC(O)CO (centres unmarked) [Propylene Glycol], the ocular irritation [3] is given as “slight eye irritant” and the eye irritation (eye) is given as “non-irritating”.
